Where two headings read alike, the source gives them in different places.
Legend:
[1] = system: Epiderm™ Human Tissue Model (EPI-200); experiment: MTT tissue viability assay (MTT ET-50 protocol) on EpiDerm skin cultures; details: for Viability (%): relative to H2O negative control
Description: Mitigation of skin irritancy induced by sodium dodecyl sulfate (SDS) surfactant dosed with the polymer of Example 11 is assessed in the Epiderm™ Human Tissue Model (EPI-200) bioassay conducted by MatTek Corporation, Ashland, Mass. The MatTek bioassay utilizes human derived epidermal keratinocytes (NHEK) which have been cultured to form a multilayered, highly differentiated model of the human epidermis.
The MTT tissue viability assay measures the NAD(P)H dependent microsomal enzyme reduction of MTT (and to a lesser extent, the succinate dehydrogenase reduction of MTT) after exposure to a treated skin culture test sample for various exposure times. The duration of exposure resulting in a 50% decrease in MTT conversion in test formulation treated EpiDerm™ cultures, relative to control cultures, is determined (ET-50).
Skin tissue culture inserts (Cat. No. EPI-200) are pre-incubated in the wells of 6-well plates containing 0.9 ml of MatTek assay medium (Cat. No. EPI-100-ASY) for 1 hr. at 37° C. in a humidified atmosphere of 5% CO2 in air. The 6-well plates containing the tissue culture inserts are removed from the incubator and the assay media is aspirated from the wells and replaced by an additional aliquot of 0.9 ml of pre-warmed (37° C.) assay media. For each exposure time wells are then dosed (2 repetitions) with 100 μl of the test formulations set forth in Table 10 (3 tissue culture wells are dosed with 100 μl ultra-pure water as a negative control for each of the test candidates). In addition, 100 μl of a positive control formulation (1% Triton X-100 in ultrapure water) is dosed into tissue culture wells (3 repetitions for each exposure time), as well as 3 repetitions of ultrapure water as a negative control. The exposure times of the test formulations, negative control and positive control are set forth below.
MTT assay plates are prepped by preparing a 24-well plate by adding 300 μl of MTT reagent solution to an appropriate number of wells to accommodate the test. The MTT reagent is utilized at a concentration of 1 mg/ml of MTT diluted in Dulbecco's Modified Eagle Medium (DMEM). The MTT/DMEM solution is centrifuged and decanted to remove any precipitate before use.
After exposure times of 60 (1 hr.), 120 (2 hrs.) and 210 (3.5 hrs.) minutes to the test solutions, the tissue cultures are removed from the incubator and thoroughly rinsed (2 times) with Dulbecco's phosphate buffered saline (DPBS) to remove the test material. The negative control is exposed for 4 hours and the positive control is exposed for time periods of 4, 6, 8, and 10 hours. Any remaining rinse media is decanted from the top of the tissue cultures. Each tissue culture insert is transferred to an appropriately labeled well of the 24-well plate containing the MTT reagent solution and placed back in the incubator. After 30 minutes reaction with the MTT reagent, the tissue cultures are removed from the incubator. Each tissue culture insert is removed from its well and the bottom is gently blotted with a lab tissue. The inserts are immersed into a labeled 24-well extraction plate containing 2 ml of isopropanol extractant solution. The 24-well extraction plate is covered with aluminum foil (to protect the samples from light) and placed into a sealable plastic bag to minimize evaporation of the extractant solution. The sealed 24-well extraction plate is set on an orbital shaker and gently shaken for 2 hours at ambient room temperature (approximately 20° C.). […]

eye = details: cited from earlier work

## CCCCCCCCCCCCOS(=O)(=O)[O-].[Na+] [Neat Surfactant, sodium dodecyl sulfate]
[1]; exposure time 1 hr
  Viability (%): 92.3%
[1]; exposure time 2 hr
  Viability (%): 32.3%
[1]; exposure time 3.5 hr
  Viability (%): 16.6%
[1]; interpolated between exposure times that bracket 50% viability, 100 μl formulation per tissue
  ET-50 (exposure time which reduces tissue viability to 50%): 1.63 h

## CCCCCCCCCCCCOS(=O)(=O)[O-].[Na+] [sodium lauryl sulfate]
eye; literature statement (Schoenberg, 1979)
  eye irritation: significant eye irritation

## Triton X-100
[1]
  ET-50 (exposure time which reduces tissue viability to 50%): 5.93 h

## sodium laureth-12 sulfate
eye
  eye irritation: almost completely non-irritating
